This note sets out measurements from patent publication US10428056B2, “Heterocyclic compound” (Takeda Pharmaceutical Company Limited, priority 2015, dated 2019).

Experiment [1] has as its target T1, human M1 receptor (hCHRM1) (Homo sapiens, UniProt P11229).
T1 construct: expressed in transfected cells; host or cells: CHO-K1
T1 sequence (P11229 1-460): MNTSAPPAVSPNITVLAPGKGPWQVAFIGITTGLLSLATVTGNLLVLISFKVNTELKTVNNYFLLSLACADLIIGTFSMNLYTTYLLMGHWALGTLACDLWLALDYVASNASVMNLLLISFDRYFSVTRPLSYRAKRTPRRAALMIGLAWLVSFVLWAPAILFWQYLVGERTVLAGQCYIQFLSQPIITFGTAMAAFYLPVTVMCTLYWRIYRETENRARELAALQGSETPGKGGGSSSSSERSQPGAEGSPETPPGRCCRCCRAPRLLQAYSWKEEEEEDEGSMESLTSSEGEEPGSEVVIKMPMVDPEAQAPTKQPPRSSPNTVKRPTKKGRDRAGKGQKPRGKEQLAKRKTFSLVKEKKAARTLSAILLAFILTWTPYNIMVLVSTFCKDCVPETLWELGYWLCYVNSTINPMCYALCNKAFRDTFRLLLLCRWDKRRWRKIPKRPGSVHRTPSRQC
As to the kind of experiment: Measurement of M1 receptor positive allosteric modulator (M1PAM) activity, Ca fluorescence by FDSS/μ cell (Experimental Example 2). The class given is cell-based. To be noted: inflection point of concentration-dependent curve, CHO-K1 cells expressing hCHRM1, acetylcholine at EC20 (0.8-1.0 nM), read-out: IP value. Here is the method:
(§1) Measurement of M1 Receptor Positive Allosteric Modulator (M1PAM) Activity
(§2) The activity of a test compound in the presence of acetylcholine at EC20 concentration (final concentration 0.8-1.0 nM), which affords an action corresponding to about 20% of the maximum activity, was measured as PAM activity. The method is as follows. CHO-K1 cells stably expressing a human M1 receptor (hCHRM1) were plated on a 384-well black clear bottom plate (BD Falcon) at 5,000 cells/well, and cultured in an incubator at 37° C., 5% CO2 for 1 day. […] A test compound prepared by diluting with assay buffer containing 3.2-4.0 nM acetylcholine was added at 10 μL/well, and the fluorescence was measured by FDSS/μ cell (Hamamatsu Photonics K.K.) for 1 min every 1 second. With the definition that the amount of change in the fluorescence on addition of acetylcholine (final concentration 1 μM) is 100% and that on addition of DMSO instead of a test compound is 0%, the activity (%) of the test compound was calculated, and the inflection point in the concentration-dependent curve of the test compound was calculated as IP values.

In experiment [2] the test system is Scopolamine-induced memory deficits models. As to the kind of experiment: Novel object recognition test (Experimental Example 4). The class given is in vivo, male Long-Evans rats. The following applies: 10 mg/kg oral single dose, scopolamine 0.1 mg/kg s.c.; retention trial 4 hr after acquisition; mean±standard error. Here is the method: Novel Object Recognition Test Novel object recognition test is comprised of two trials called the acquisition and the retention trials. Scopolamine-induced memory deficits models were used for the test, and animals used were male Long-Evans rats. On the day before the test, for acclimation, the rats were allowed to freely move about the test box (40×40×50 cm) for 10 minutes. On the test day, the rats were acclimated to the test room for about 1 hr prior to the test. The test compounds were orally administered to the rats in a single dose a given time before the acquisition trial. For induction of learning and memory deficits, scopolamine (0.1 mg/kg) was subcutaneously administered into the rats 30 min before the acquisition trial. For the acquisition trial, two identical objects (A1, A2) were placed in the test box. The rats were put in the test box for 3 min, and the duration exploring each object was measured. The retention trial was performed 4 hr after the acquisition trial. […] The duration for exploring each object in the acquisition trial and the retention trial was measured, and the exploration rate of novel object was calculated. The exploration rate of novel object was expressed as (the duration exploring the novel object)/[(the duration exploring the novel object)+(the duration exploring the familiar object)]×100(%) at mean±standard error.

Experiment [3] addresses T1, human M1 receptor (hCHRM1). Put plainly: Measurement of M1 receptor positive allosteric modulator (M1PAM) activity, Ca fluorescence by FLIPRtetra (Experimental Example 1). Format: cell-based. The following applies: inflection point of concentration-dependent curve, CHO-K1 cells expressing hCHRM1, acetylcholine at EC20 (0.8-1.0 nM), read-out: IP value. Here is the method:
as §1
as §2, with “FLIPRtetra (Molecular Devices)” for “FDSS/μ cell (Hamamatsu Photonics K.K.)”

On to `Cc1c(Cc2ccc(-n3cccn3)nc2)cc2c(c1Cl)OCN([C@H]1CCC[C@@H]1O)C2=O` (single isomer, unassigned) [Example 97, 8-chloro-3-(trans-2-hydroxycyclopentyl)-7-methyl-6-((6-(1H-pyrazol-1-yl)pyridin-3-yl)methyl)-2,3-dihydro-4H-1,3-benzoxazin-4-one], for which the EC50 in experiment [1] was 0.0068 µM.
Consider `Cc1ccc(Cc2cc3c(cc2C)OCN([C@H]2CCCC[C@@H]2O)C3=O)cn1` (single isomer, unassigned) [Example 28, 3-(trans-2-hydroxycyclohexyl)-7-methyl-6-((6-methylpyridin-3-yl)methyl)-2,3-dihydro-4H-1,3-benzoxazin-4-one], for which the “exploration rate of novel object (%)” value in experiment [2] was determined as 56.0±2.2%.
In the case of `Cc1cc2c(cc1Cc1ccc(Cl)nc1)C(=O)N([C@H]1CCCC[C@@H]1O)CO2` (relative stereo) [Example 62, 6-((6-chloropyridin-3-yl)methyl)-3-(trans-2-hydroxycyclohexyl)-7-methyl-2,3-dihydro-4H-1,3-benzoxazin-4-one], in experiment [3], the EC50 stood at 0.027 µM.
